Columns and labels:
Assay in all cases: SignalChem radioisotope protein kinase assay
Assay type in all cases: biochemical
Conditions in all cases: 5 μl of 100 μM stock solution in 25 μl
p38β = p38β (Homo sapiens, UniProt Q15759)
Text: (§1) The various protein kinase targets to be employed in the kinase profiling assay were cloned, expressed and purified in-house at SignalChem (Richmond, BC, Canada) using proprietary methods. Quality control testing is routinely performed on each of the SignalChem targets to ensure compliance to acceptable standards. Protein substrates employed in the target profiling process were synthesized internally. ^33P-ATP was purchased from PerkinElmer. All other materials were of standard grade. Compound 10 (FIG. 4) was supplied to SignalChem in a powder form. It was reconstituted in DMSO to form a stock solution which was then diluted with 10% DMSO to form a working stock solution (100 μM) that was then profiled against the various protein kinase targets. The assay conditions for the various protein kinase targets were optimized to yield acceptable enzymatic activity. In addition, the assays were optimized to give high signal-to-noise ratio.
(§2) SignalChem uses a radioisotope assay format for profiling evaluation of protein kinase targets. Protein kinase assays were performed in triplicate at ambient temperature for 20-40 min (depending on the target) in a final volume of 25 μl according to the following assay reaction recipe: • Component 1: 5 μl of diluted active protein kinase target (˜10-40 nM final protein concentration in the assay) • Component 2: 5 μl of stock solution of substrate (1-5 μg of peptide or protein substrate) • Component 3: 5 μl of kinase assay buffer or protein kinase activator in kinase assay buffer • Component 4: 5 μl of Compound 10 (100 μM stock solution) or 10% DMSO • Component 5: 5 μl of 33P-ATP (25 μM stock solution, 0.8 μCi)
(§3) The assay was initiated by the addition of ^33P-ATP and the reaction mixture incubated at ambient temperature for 20-40 minutes, depending on the protein kinase target. After the incubation period, the assay was terminated by spotting 10 μl of the reaction mixture onto a Millipore Multiscreen plate. The Millipore Multiscreen plate was washed 3 times for approximately 15 minutes each in a 1% phosphoric acid solution. The radioactivity on the P81 plate was counted in the presence of scintillation fluid in a Trilux scintillation counter. Blank control, which included all the assay components except the addition of the appropriate substrate (replaced with equal volume of assay dilution buffer), was set up for each protein kinase target. The corrected activity for each protein kinase target was determined by removing the blank control value.

ABL1 = ABL1 (Homo sapiens, UniProt P00519)
Text: as §1, §2, §3

AURORA B = AURORA B (Homo sapiens, UniProt Q96GD4)
Text: as §1, §2, §3

PAK3 = PAK3 (Homo sapiens, UniProt O75914)
Text: as §1, §2, §3

PIM1 = PIM1 (Homo sapiens, UniProt P11309)
Text: as §1, §2, §3

BRK = BRK (Homo sapiens, UniProt Q13882)
Text: as §1, §2, §3

PDK1 = PDK1 (Homo sapiens, UniProt O15530)
Text: as §1, §2, §3

FMS = FMS (Homo sapiens, UniProt P07333)
Text: as §1, §2, §3

PDGFRα = PDGFRα (Homo sapiens, UniProt P16234)
Text: as §1, §2, §3

ABL2 = ABL2 (Homo sapiens, UniProt P42684)
Text: as §1, §2, §3

RAF1(EE) = target: T1, RAF1(EE) (Homo sapiens, UniProt P04049, Y340E/Y341E)
T1 construct: purchased SignalChem
Text: as §1, §2, §3

ALK4 = ALK4 (Homo sapiens, UniProt P36896)
Text: as §1, §2, §3

ERK2 = ERK2 (Homo sapiens, UniProt P28482)
Text: as §1, §2, §3

MST4 = MST4 (Homo sapiens, UniProt Q9P289)
Text: as §1, §2, §3

FAK = FAK (Homo sapiens, UniProt Q05397)
Text: as §1, §2, §3

AKT3 = AKT3 (Homo sapiens, UniProt Q9Y243)
Text: as §1, §2, §3

c-KIT = c-KIT (Homo sapiens, UniProt P10721)
Text: as §1, §2, §3

SRC = target: T2, SRC (Homo sapiens, UniProt P12931)
T2 construct: purchased SignalChem
Text: as §1, §2, §3

PKCα = target: T3, PKCα (Homo sapiens, UniProt P17252)
T3 construct: purchased SignalChem
Text: as §1, §2, §3

NEK6 = NEK6 (Homo sapiens, UniProt Q9HC98)
Text: as §1, §2, §3

p38δ = p38δ (Homo sapiens, UniProt O15264)
Text: as §1, §2, §3

PAK2 = PAK2 (Homo sapiens, UniProt Q13177)
Text: as §1, §2, §3

MARK3 = MARK3 (Homo sapiens, UniProt P27448)
Text: as §1, §2, §3

MARK1 = MARK1 (Homo sapiens, UniProt Q9P0L2)
Text: as §1, §2, §3

TRKA = target: T4, TRKA (Homo sapiens, UniProt P04629)
T4 construct: purchased SignalChem
Text: as §1, §2, §3

FER = FER (Homo sapiens, UniProt P16591)
Text: as §1, §2, §3

p38α = p38α (Homo sapiens, UniProt Q16539)
Text: as §1, §2, §3

PAK4 = PAK4 (Homo sapiens, UniProt O96013)
Text: as §1, §2, §3

FLT3 = FLT3 (Homo sapiens, UniProt P36888)
Text: as §1, §2, §3

Sequence of PIM1 (P11309 whole entry, species assumed): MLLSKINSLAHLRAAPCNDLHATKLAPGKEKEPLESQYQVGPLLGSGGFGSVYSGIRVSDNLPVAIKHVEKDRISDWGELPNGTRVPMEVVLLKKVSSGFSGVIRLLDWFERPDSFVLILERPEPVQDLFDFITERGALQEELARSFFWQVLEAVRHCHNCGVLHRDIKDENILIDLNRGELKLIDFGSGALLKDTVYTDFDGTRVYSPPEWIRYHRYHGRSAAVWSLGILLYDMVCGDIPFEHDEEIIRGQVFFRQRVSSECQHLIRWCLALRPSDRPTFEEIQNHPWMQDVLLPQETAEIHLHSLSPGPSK
Sequence of AKT3 (Q9Y243 whole entry, species assumed): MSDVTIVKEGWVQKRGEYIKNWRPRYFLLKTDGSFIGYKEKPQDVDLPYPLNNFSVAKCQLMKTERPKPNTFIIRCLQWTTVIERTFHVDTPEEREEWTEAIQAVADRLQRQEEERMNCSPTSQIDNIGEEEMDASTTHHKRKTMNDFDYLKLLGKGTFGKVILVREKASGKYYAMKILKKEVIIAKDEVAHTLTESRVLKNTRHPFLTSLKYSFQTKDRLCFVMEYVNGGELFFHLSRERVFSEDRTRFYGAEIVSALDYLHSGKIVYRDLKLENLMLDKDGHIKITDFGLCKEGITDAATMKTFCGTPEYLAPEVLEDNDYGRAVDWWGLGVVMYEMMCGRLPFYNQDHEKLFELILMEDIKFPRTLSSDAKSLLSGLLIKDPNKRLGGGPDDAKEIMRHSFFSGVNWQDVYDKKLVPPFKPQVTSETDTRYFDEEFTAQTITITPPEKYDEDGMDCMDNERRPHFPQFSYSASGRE
Sequence of ERK2 (P28482 whole entry, species assumed): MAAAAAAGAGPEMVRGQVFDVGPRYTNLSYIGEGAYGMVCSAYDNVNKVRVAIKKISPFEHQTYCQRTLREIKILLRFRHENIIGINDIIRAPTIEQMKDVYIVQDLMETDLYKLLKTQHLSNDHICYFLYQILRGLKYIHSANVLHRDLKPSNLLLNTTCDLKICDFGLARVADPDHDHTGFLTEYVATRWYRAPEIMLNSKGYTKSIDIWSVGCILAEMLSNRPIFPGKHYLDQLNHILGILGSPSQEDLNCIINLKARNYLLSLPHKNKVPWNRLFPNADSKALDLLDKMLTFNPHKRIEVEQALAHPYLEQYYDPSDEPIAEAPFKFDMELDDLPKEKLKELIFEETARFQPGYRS
Sequence of PDK1 (O15530 whole entry): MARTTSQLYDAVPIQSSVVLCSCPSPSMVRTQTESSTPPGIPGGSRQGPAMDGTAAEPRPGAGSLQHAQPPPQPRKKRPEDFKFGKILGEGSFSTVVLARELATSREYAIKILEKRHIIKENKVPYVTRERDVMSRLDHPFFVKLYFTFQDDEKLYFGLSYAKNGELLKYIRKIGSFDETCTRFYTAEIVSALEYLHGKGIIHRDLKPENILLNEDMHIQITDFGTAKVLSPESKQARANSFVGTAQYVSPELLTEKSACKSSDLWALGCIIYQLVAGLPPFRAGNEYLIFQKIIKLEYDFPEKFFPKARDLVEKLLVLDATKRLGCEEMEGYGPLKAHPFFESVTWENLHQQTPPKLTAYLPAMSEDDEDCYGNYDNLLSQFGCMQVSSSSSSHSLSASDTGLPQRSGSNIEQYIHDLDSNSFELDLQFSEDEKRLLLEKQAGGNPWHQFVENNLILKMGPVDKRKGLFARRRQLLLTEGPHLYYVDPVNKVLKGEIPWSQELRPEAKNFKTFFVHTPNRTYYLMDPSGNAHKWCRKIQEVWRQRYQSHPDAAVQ
Sequence of AURORA B (Q96GD4 whole entry): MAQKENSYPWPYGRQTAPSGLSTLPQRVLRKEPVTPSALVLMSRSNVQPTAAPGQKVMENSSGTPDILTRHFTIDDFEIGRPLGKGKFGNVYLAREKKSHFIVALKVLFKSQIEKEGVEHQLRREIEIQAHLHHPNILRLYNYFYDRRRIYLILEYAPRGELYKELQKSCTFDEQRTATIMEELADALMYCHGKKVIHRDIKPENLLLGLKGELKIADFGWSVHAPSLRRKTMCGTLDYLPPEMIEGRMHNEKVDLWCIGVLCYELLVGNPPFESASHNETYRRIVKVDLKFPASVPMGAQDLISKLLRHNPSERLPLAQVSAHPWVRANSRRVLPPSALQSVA
Sequence of p38α (Q16539 whole entry): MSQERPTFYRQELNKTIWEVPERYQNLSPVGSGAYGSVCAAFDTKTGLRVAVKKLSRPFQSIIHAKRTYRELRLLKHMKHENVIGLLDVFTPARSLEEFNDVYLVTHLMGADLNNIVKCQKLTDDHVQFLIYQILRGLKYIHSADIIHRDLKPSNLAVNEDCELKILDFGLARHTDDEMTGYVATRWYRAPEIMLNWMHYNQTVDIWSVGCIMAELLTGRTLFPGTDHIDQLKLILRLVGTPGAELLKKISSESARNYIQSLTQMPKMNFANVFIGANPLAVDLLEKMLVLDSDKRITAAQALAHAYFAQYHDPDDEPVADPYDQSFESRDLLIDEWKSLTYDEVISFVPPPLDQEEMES
Sequence of PAK2 (Q13177 whole entry, species assumed): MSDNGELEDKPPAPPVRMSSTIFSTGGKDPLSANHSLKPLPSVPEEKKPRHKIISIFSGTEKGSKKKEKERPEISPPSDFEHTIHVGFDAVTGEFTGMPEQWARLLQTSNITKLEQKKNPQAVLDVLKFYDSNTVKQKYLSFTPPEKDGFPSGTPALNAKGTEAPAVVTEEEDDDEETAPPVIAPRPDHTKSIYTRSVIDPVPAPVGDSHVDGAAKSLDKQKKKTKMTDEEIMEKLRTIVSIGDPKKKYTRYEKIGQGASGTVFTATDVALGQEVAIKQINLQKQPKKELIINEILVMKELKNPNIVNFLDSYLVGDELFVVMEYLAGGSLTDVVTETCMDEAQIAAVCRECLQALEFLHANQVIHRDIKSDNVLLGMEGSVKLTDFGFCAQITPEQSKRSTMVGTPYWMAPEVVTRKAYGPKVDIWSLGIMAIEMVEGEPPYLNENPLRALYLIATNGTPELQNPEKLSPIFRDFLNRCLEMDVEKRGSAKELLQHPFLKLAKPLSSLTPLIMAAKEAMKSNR
Sequence of p38β (Q15759 whole entry): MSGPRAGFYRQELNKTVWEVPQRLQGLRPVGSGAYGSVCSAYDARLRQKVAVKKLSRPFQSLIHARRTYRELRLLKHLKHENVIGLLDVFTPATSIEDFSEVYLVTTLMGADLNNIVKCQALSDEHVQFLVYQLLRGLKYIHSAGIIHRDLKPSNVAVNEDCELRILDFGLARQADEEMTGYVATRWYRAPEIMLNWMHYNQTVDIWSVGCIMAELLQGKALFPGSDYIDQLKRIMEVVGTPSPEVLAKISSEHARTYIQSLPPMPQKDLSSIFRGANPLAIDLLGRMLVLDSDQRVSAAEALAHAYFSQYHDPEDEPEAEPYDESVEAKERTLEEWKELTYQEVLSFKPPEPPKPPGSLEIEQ
Sequence of FAK (Q05397 whole entry, species assumed): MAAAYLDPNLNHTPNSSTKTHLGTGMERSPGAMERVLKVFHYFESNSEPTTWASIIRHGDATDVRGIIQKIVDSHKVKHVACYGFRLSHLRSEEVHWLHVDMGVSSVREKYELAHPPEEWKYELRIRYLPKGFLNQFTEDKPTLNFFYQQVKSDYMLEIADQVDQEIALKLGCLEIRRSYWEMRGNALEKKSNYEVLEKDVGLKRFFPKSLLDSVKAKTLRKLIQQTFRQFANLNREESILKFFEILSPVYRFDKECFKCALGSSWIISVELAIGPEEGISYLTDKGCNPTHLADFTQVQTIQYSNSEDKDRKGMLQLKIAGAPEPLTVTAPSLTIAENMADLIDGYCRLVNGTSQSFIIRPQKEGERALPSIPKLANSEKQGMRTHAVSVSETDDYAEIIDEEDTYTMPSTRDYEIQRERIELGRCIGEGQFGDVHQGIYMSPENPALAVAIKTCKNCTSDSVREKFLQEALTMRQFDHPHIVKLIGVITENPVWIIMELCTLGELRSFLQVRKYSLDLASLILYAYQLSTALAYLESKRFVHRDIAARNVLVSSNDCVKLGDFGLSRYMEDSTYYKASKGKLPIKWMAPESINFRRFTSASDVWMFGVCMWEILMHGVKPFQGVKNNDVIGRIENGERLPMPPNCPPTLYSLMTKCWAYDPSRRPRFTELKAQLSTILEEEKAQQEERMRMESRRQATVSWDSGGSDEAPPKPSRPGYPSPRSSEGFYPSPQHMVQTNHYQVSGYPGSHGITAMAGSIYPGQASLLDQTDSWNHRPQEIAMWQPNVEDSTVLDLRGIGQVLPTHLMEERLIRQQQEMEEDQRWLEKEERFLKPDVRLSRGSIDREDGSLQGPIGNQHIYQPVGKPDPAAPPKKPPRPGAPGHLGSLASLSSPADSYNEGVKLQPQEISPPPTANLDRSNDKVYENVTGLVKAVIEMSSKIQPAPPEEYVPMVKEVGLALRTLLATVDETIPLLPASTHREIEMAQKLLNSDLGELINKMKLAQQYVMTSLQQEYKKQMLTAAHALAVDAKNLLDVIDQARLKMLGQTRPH
Sequence of PAK3 (O75914 whole entry, species assumed): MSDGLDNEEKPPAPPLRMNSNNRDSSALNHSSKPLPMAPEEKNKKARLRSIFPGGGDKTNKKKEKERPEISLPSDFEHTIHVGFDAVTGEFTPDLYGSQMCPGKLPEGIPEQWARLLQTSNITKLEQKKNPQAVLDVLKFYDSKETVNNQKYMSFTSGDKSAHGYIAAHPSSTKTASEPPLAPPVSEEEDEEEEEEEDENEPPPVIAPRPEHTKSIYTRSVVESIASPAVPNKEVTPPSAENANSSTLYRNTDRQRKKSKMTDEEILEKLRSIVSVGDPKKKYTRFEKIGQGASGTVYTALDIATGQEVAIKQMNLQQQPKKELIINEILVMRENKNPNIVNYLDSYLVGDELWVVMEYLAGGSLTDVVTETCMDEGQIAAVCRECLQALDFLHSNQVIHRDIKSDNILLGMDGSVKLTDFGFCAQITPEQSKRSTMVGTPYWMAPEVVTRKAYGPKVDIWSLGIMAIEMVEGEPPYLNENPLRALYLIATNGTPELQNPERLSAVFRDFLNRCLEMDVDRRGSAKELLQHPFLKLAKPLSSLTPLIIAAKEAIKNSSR

## CCOC(=O)C[C@@H]1C(O[Si](C)(C)C(C)(C)C)[C@H](n2cnc3c(NC(=O)Nc4ccccc4)ncnc32)O[C@@H]1CNC(=O)NC (some centres unmarked) [Compound 10]
p38β
  % Activity Change: 15%
ABL1
  % Activity Change: 0%
AURORA B
  % Activity Change: 4%
PAK3
  % Activity Change: 524%
PIM1
  % Activity Change: 51%
BRK
  % Activity Change: 2%
PDK1
  % Activity Change: 8%
FMS
  % Activity Change: −17%
PDGFRα
  % Activity Change: −2%
ABL2
  % Activity Change: 8%
RAF1(EE)
  % Activity Change: 0%
ALK4
  % Activity Change: 2%
ERK2
  % Activity Change: −4%
MST4
  % Activity Change: 47%
FAK
  % Activity Change: −3%
AKT3
  % Activity Change: 52%
c-KIT
  % Activity Change: −6%
SRC
  % Activity Change: −2%
PKCα
  % Activity Change: 36%
NEK6
  % Activity Change: 28%
p38δ
  % Activity Change: 5%
PAK2
  % Activity Change: 16%
MARK3
  % Activity Change: −1%
MARK1
  % Activity Change: 5%
TRKA
  % Activity Change: −6%
FER
  % Activity Change: −3%
p38α
  % Activity Change: 9%
PAK4
  % Activity Change: −20%
FLT3
  % Activity Change: 11%

From US20100152434A1, “Protein Kinase-binding Nucleosides and Associated Methods” (priority 2007, published 2010)
